Results published in US4742049A, “Semisynthetic erythromycin antibiotics” (Abbott Laboratories, priority 1986, dated 1988).
Values after ≈ are worked out from the molar mass of the structure shown. Like-named read-outs stand apart in the source and are kept apart here.

How the values were obtained:
[1] = test system: Pseudomonas cepacia; assay: antimicrobial spectrum, agar dilution MIC; type: cell-based; conditions: Burkholderia cepacia, strain 2961; BHI agar, 20-24 hours; read-out: MIC
Procedure: Erythromycin A was used for this purpose.
After incubation, each disk is read.

[2] = test system: Strep. pneumoniae; assay: antimicrobial spectrum, agar dilution MIC; type: cell-based; conditions: Streptococcus pneumoniae
Procedure: (§1) Twelve petri dishes containing successive aqueous dilutions of the test compound mixed with 10 ml of sterilized Brain Heart Infusion agar (Difco 0418-01-5) are prepared. Each plate is inoculated with 1:100 (or 1:10 for slow-growing strains, primarily Micrococcus and Streptococcus) dilutions of up to 32 different microorganisms, using a Steers replicator block. The inoculated plates are incubated at 35°-37° C. for 20-24 hours. In addition, a control plate, using BHI agar containing no test compound, is prepared and incubated at the beginning and end of each test.
(§2) An additional plate containing a compound having known susceptibility patterns for the organisms being tested and belonging to the same antibiotic class as the test compound is also prepared and incubated as a further control, as well as to provide test-to-test comparability.
(§3) After incubation, each disk is read. The MIC is defined as the lowest concentration of drug yielding no growth, a slight haze, or sparsely isolated colonies on the inoculum spot as compared to the growth control.

[3] = test system: Pseudomonas aeruginosa; assay: antimicrobial spectrum, agar dilution MIC; type: cell-based; conditions: Pseudomonas aeruginosa, BHI agar, 20-24 hours
Procedure: as §1, §2, §3

[4] = test system: Staph. epidermidis; assay: antimicrobial spectrum, agar dilution MIC; type: cell-based; conditions: Staphylococcus epidermidis, BHI agar, 20-24 hours
Procedure: as §1, §2, §3

[5] = test system: Staph. aureus; assay: antimicrobial spectrum, agar dilution MIC; type: cell-based; conditions: Staphylococcus aureus, BHI agar, 20-24 hours
Procedure: as §1, §2, §3

[6] = test system: Strep. agalactiae; assay: antimicrobial spectrum, agar dilution MIC; type: cell-based; conditions: Streptococcus agalactiae, BHI agar, 20-24 hours
Procedure: as §1, §2, §3

[7] = test system: Providencia stuartii; assay: antimicrobial spectrum, agar dilution MIC; type: cell-based; conditions: strain CMX 640, BHI agar, 20-24 hours
Procedure: as §1, §2, §3

[8] = test system: Strep. pyogenes; assay: antimicrobial spectrum, agar dilution MIC; type: cell-based; conditions: Streptococcus pyogenes, BHI agar, 20-24 hours
Procedure: as §1, §2, §3

[9] = test system: Strep. faecium; assay: antimicrobial spectrum, agar dilution MIC; type: cell-based; conditions: Enterococcus faecium, ATCC8043, strain ATCC 8043; BHI agar, 20-24 hours
Procedure: as §1, §2, §3

[10] = test system: Strep. faecalis; assay: antimicrobial spectrum, agar dilution MIC; type: cell-based; conditions: Enterococcus faecalis, BHI agar, 20-24 hours
Procedure: as §1, §2, §3

[11] = test system: Strep. bovis; assay: antimicrobial spectrum, agar dilution MIC; type: cell-based; conditions: Streptococcus equinus, strain A5169; BHI agar, 20-24 hours
Procedure: as §1, §2, §3

[12] = test system: E. coli; assay: antimicrobial spectrum, agar dilution MIC; type: cell-based; conditions: Escherichia coli, BHI agar, 20-24 hours
[13] = test system: Acinetobacter SP; assay: antimicrobial spectrum, agar dilution MIC; type: cell-based; conditions: strain CMX 669, BHI agar, 20-24 hours
[14] = test system: Micrococcus luteus; assay: antimicrobial spectrum, agar dilution MIC; type: cell-based; conditions: 20-24 hours
[15] = test system: Klebsiella pneumoniae; assay: antimicrobial spectrum, agar dilution MIC; type: cell-based; conditions: strain 8045, BHI agar, 20-24 hours
[16] = test system: Staph. aureus NCTC 10649; assay: acute mouse protection test; conditions: for ED50: Staphylococcus aureus, NCTC10649, in Mus musculus, 168 h, dosed 1 and 5 hours post-infection, observed 7 days; for # Died: ten mice
Procedure: The acute mouse protection test is conducted on ten mice with each of three levels of drug.
The acute mouse protection test is conducted on female, Swiss albino mice, 18-20 grams in weight. The mice are injected intraperitoneally with an 18-hour culture of the indicated test organism diluted sufficiently to provide the desired LD50 value. To check the potency of the inoculum, a titration of the indicated test organism is carried out in control animals. […] The ED50 values are calculated using the mortality data collected.

[17] = test system: Staph. saprophyticus; assay: microbe, parasite or virus in culture; conditions: Staphylococcus saprophyticus, ATCC15305
Procedure: as §1, §2, §3

[18] = test system: Lactobacillus Casei; assay: antimicrobial spectrum, agar dilution MIC; type: cell-based; conditions: Lacticaseibacillus casei, ATCC7469, strain ATCC 7469; BHI agar, 20-24 hours
[19] = test system: Ent. aerogenes; assay: antimicrobial spectrum, agar dilution MIC; type: cell-based; conditions: Klebsiella aerogenes, ATCC10348, strain ATCC 10348; BHI agar, 20-24 hours
[20] = test system: gut contractions (stomach, duodenum, jejunum); conditions: dog, in vivo, iv, 4 mg/kg
Procedure: Compounds of this invention have been tested for gastrointestinal stimulating activity in a dog model at 4 mg/kg intravenously. Contractions in the gut were recorded with surgically implanted strain gauges. […] Ratios were calculated for the stomach, duodenum and jejunum, and a final arithmetic mean index was calculated and reported in Table 1.

CC[C@H]1OC(=O)[C@H](C)[C@@H](O[C@H]2C[C@@](C)(OC)[C@@H](O)[C@H](C)O2)[C@H](C)[C@@H](O[C@@H]2O[C@H](C)C[C@H](N(C)C)[C@H]2O)[C@](C)(OC)C[C@@H](C)C(=O)[C@H](C)[C@H]2NC(=O)O[C@@]21C [Example 2, 11-deoxy-6-O-methyl erythromycin A 11,12 cyclic carbamate]
MIC [1]: 25 µg/mL (≈ 32.3 µM) | MIC [2]: 16 µg/mL (≈ 20.7 µM) | MIC ([2]; strain CMX 635, BHI agar, 20-24 hours): 0.004 µg/mL (≈ 0.00517 µM) | MIC ([2]; strain CMX 698, BHI agar, 20-24 hours): 0.004 µg/mL (≈ 0.00517 µM) | MIC ([3]; strain 5007): 100 µg/mL (≈ 129 µM) | MIC ([3]; strain BMH10): 50 µg/mL (≈ 64.7 µM) | MIC ([3]; strain K799/61): 1.56 µg/mL (≈ 2.02 µM) | MIC ([3]; strain K799/WT): 50 µg/mL (≈ 64.7 µM) | MIC ([4]; strain 3519): 0.05 µg/mL (≈ 0.0647 µM) | MIC ([4]; strain 3519 RARI): 0.05 µg/mL (≈ 0.0647 µM) | MIC ([4]; strain CMX 724G): > 128 µg/mL | MIC ([4]; strain CMX 728): 0.03 µg/mL (≈ 0.0388 µM) | MIC ([4]; strain CMX 729h): > 128 µg/mL | MIC ([4]; strain GYR 1151): 0.03 µg/mL (≈ 0.0388 µM) | MIC ([5]; ATCC6538P, strain ATCC 6538P): 0.1 µg/mL (≈ 0.129 µM) | MIC ([5]; ATCC25923, strain ATCC 25923): 0.015 µg/mL (≈ 0.0194 µM) | MIC ([5]; NCTC10649, strain NCTC 10649, read-out: MIC): 0.06 µg/mL (≈ 0.0776 µM) | MIC ([5]; strain 45): 0.1 µg/mL (≈ 0.129 µM) | MIC ([5]; strain 45 RAR 2): 0.2 µg/mL (≈ 0.259 µM) | MIC ([5]; strain 642A): 0.03 µg/mL (≈ 0.0388 µM) | MIC ([5]; strain A5177): 0.39 µg/mL (≈ 0.505 µM) | MIC ([5]; strain A-5278): > 128 µg/mL | MIC ([5]; strain CMX 686B): 0.1 µg/mL (≈ 0.129 µM) | MIC ([5]; strain CMX 705): 0.015 µg/mL (≈ 0.0194 µM) | MIC ([5]; strain CMX 730A): 0.015 µg/mL (≈ 0.0194 µM) | MIC ([5]; strain CMX 739A): 0.015 µg/mL (≈ 0.0194 µM) | MIC ([5]; strain GYR 1150): 0.03 µg/mL (≈ 0.0388 µM) | MIC ([5]; strain GYR 1162): 0.03 µg/mL (≈ 0.0388 µM) | MIC ([6]; strain CMX 508): 0.01 µg/mL (≈ 0.0129 µM) | MIC ([6]; strain CMX 633): 0.015 µg/mL (≈ 0.0194 µM) | MIC [7]: > 100 µg/mL | MIC ([8]; strain 930): > 100 µg/mL | MIC ([8]; strain C203): 0.004 µg/mL (≈ 0.00517 µM) | MIC ([8]; strain EES61): 0.05 µg/mL (≈ 0.0647 µM) | MIC ([8]; strain M79061-98, read-out: MIC): 0.25 µg/mL (≈ 0.323 µM) | MIC ([8]; strain M79061-139): 0.004 µg/mL (≈ 0.00517 µM) | MIC ([8]; strain M79061-140): 0.004 µg/mL (≈ 0.00517 µM) | MIC [9]: 0.05 µg/mL (≈ 0.0647 µM) | MIC ([10]; strain A-5168): > 128 µg/mL | MIC ([10]; strain CMX 663F): 0.5 µg/mL (≈ 0.647 µM) | MIC ([10]; strain CMX 729G, read-out: MIC): 0.12 µg/mL (≈ 0.155 µM) | MIC ([10]; strain CMX 736F, read-out: MIC): 0.06 µg/mL (≈ 0.0776 µM) | MIC ([10]; strain GYR 1164, read-out: MIC): 0.12 µg/mL (≈ 0.155 µM) | MIC ([10]; strain GYR 1166, read-out: MIC): 0.06 µg/mL (≈ 0.0776 µM) | MIC ([10]; strain GYR 1167, read-out: MIC): 0.12 µg/mL (≈ 0.155 µM) | MIC [11]: 0.02 µg/mL (≈ 0.0259 µM) | MIC ([12]; strain DC-2): 50 µg/mL (≈ 64.7 µM) | MIC ([12]; strain H560): 3.1 µg/mL (≈ 4.01 µM) | MIC ([12]; strain JUHL): 50 µg/mL (≈ 64.7 µM) | MIC ([12]; strain KNK 437): 25 µg/mL (≈ 32.3 µM) | MIC ([12]; strain SS): 0.39 µg/mL (≈ 0.505 µM) | MIC [13]: 6.2 µg/mL (≈ 8.02 µM) | MIC ([14]; strain 4698, BHI agar): 0.39 µg/mL (≈ 0.505 µM) | MIC ([14]; strain 9341, BHI agar): 0.05 µg/mL (≈ 0.0647 µM) | MIC [15]: 50 µg/mL (≈ 64.7 µM) | ED50 ([16]; po, dosage medium Carboxymethylcellulose): 45.2 mg/kg | ED50 ([16]; po, dosage medium PBS): 34.4 mg/kg | ED50 ([16]; sc, subcutaneous, dosage medium Injectable solution): 5 mg/kg | # Died ([16]; oral, Carboxymethylcellulose, 9.4 mg/kg): 10 | # Died ([16]; oral, Carboxymethylcellulose, 62.5 mg/kg): 7 | # Died ([16]; oral, Carboxymethylcellulose, 150.0 mg/kg): 0 | # Died ([16]; oral, PBS, 9.4 mg/kg): 10 | # Died ([16]; oral, PBS, 62.5 mg/kg): 7 | # Died ([16]; oral, PBS, 150.0 mg/kg): 0 | # Died ([16]; subcutaneous, Injectable solution, 2.5 mg/kg): 9 | # Died ([16]; subcutaneous, Injectable solution, 10.0 mg/kg): 1 | # Died ([16]; subcutaneous, Injectable solution, 40.0 mg/kg): 0 | MIC [17]: 0.03 µg/mL (≈ 0.0388 µM) | MIC [18]: 0.05 µg/mL (≈ 0.0647 µM) | MIC [19]: 100 µg/mL (≈ 129 µM) | Gastrointestinal Motility Index [20]: 1.18
